Laboratory results published in patent publication US8691863B2, “Use of active substance combinations having insecticidal properties for controlling animal pests from the stink bug family” (Bayer CropScience AG, priority 2007, dated 2014).

What was measured:
[1] = test system: brown stink bug (Euschistus heros); assay: Field trial on soybean plots against brown stink bug, kill efficiency of the nymphs; assay type: in vivo; settings: nymphs on soybean cv. BRS232, 14 days after spray treatment; application rate g a.i./ha: imidacloprid 72, (I-2) 24, mixture 72 + 24, methamidophos 480; tank mix with 0.1% a.i. methylated soya oil
Excerpt: (§1) The expected activity for a given combination of two active substances can be calculated as described by S. R. Colby, Weeds 15 (1967), 20-22, as follows:
(§2) If the actual insecticidal kill efficiency is greater than calculated, then the combination is superadditive in its kill efficiency, i.e. a synergistic effect is present. In this case, the kill efficiency actually observed must be greater than the value for the expected kill efficiency (E) calculated with the abovementioned formula.
(§3) After the desired period of time, the kill efficiency is determined in %. Here, 100% means that all animals have been killed; 0% means that no animals have been killed.
Methamidophos (SL 600) was tested concomitantly as commercially available standard. The water application rate is 200 l/ha.

[2] = test system: red-banded stink bug (Piezodorus guildinii); assay: Caged soybean plot trial against red-banded stink bug, kill efficiency of the adults; assay type: in vivo; settings: application rate g a.i./ha: imidacloprid 70, (I-2) 24, mixture 72 + 24, methamidophos 480, tank mix with 0.1% a.i. methylated soya oil; for Kill efficiency as calculated by Abbott (%) 1 d: adults on soybean cv. CO-32, 1 day after spray treatment; for Kill efficiency as calculated by Abbott (%) 3 d: adults on soybean cv. CO-32, 3 days after spray treatment
Excerpt: as §1, §2, §3
Plots approximately 1 m^2 in size, provided with cages and planted with soybean plants (Glycine max) cv. “CO-32” are treated in four replications against the red-banded stink bug (Piezodorus guildinii) using a pneumatically operated backpack sprayer. A mixture of the active substance (I-2) and imidacloprid (SC 480) is applied in comparison with the active substance (I-2) (SC 240) on its own and imidacloprid (SC 200) on its own at the application rates specified, as a tank mix with 0.1% a.i. methylated soya oil (EC 850). Methamidophos (SL 600) was tested concomitantly as commercially available standard. The water application rate is 300 l/ha. The evaluation is performed 1 and 3 days after the treatment by determining the kill efficiency of the adults.

Row | SMILES | Kill efficiency as calculated by Abbott (%) 14 d [1] [%] | Kill efficiency as calculated by Abbott (%) 1 d [2] [%] | Kill efficiency as calculated by Abbott (%) 3 d [2] [%]
1 | COP(N)(=O)SC (stereo not drawn) [Methamidophos] | 27 | 52.5 | 87.5
2 | O=[N+]([O-])/N=C1\NCCN1Cc1ccc(Cl)nc1 [Imidacloprid, imidacloprid] | 21 | 65 | 65
